# Assays:
# Aβ1-42 peptide = molecular target: T1, Aβ1-42 peptide (Homo sapiens, UniProt P05067); assay: Aβ oligomerization, Western blot and dot-blot immunoassays (6E10, A11 antibodies); format: biochemical
# T1 construct: Aβ1-42 peptide was obtained from American Peptide; purchased American Peptide (Sunnyvale, Calif., USA)
# Description: Aβ1-42 peptide was obtained from American Peptide (Sunnyvale, Calif., USA). To obtain Aβ1-42 oligomer solutions, we used a previously described protocol that results in solutions containing stable oligomers, but not fibrils for several days (Necula et al. (2007)). The lyophilized peptide was dissolved in 1 volume of 1 mM NaOH and then diluted in phosphate-buffered saline (PBS) pH 7.4 to the desired concentrations.
# For the analysis of the inhibition of Aβ1-42 oligomerization/aggregation reaction, we incubated Aβ (100 μM, pH 7.4) prepared in the absence or presence of ascending concentrations of cotinine (100, 200 and 500 μM) for 7 days at 25° C. and analyzed on days 2, 5, 6 and 7. Aβ oligomerization was analyzed by Western blot and dot-blot immunoassays using antibody 6E10, which preferentially recognizes the monomeric form of Aβ and the A11 antibody that specifically recognizes the oligomeric form of the peptide but not Aβ monomers, protofibrils or fibrils.
# The western blot analysis was performed as described before (Necula et al. (2007)). 10 μl-aliquots of each oligomerization reaction containing Aβ alone or Aβ plus cotinine were mixed with 5×SDS sample buffer and loaded in a 4-20% Tris-HCl gel and analyzed by Western blot using the 6E10 antibody.
# The dot-blot analysis was performed as described (Necula et al. (2007)). 4-8 μl of the oligomerization mixture was applied onto nitrocellulose membranes and allowed to dry, after which the membranes were blocked for 1 h at room temperature with 10% skim milk in TBS containing 0.05% Tween 20 (TBS-T). […] After being washed with TBS-T, membranes were incubated with horseradish peroxidase-conjugated secondary antibody (1:5000) for 1 h, and visualized using enhanced chemiluminescence (Dura ECL detection kit, Pharmacia Biotech, Piscataway, N.J., USA), scanned on the Kodak Image Station 440CF, and analyzed using Molecular Imaging Software version 4.0 (Rochester, N.Y., USA) and NIH ImageJ software. The Aβ solutions for each particular day were analyzed in the same membrane and developed simultaneously. […]
# anxiety in mice = assay: Elevated plus maze, basal anxiety; format: in vivo; conditions: cotinine 1 and 5 mg/kg
# Text: Mice were placed in an EPM (Stoelting, Wood Dale, Ill., USA) made of grey plexiglas, consisting of two opposite-facing open arms, two opposite-facing closed arms, and a central area. Mice were placed at the end of one of the open arms facing toward the central area before a 5-minute test session was begun. We recorded the number of entries into the open and closed arms and assessed the exploratory behavior of the mice. We utilized a video tracking software that measures movement in each section of the maze in order to determine the time the mice were mobile exploring the different arms. Statistical significance was evaluated using One-way ANOVA with Tukey posttest. ns, not significant.
# The elevated plus maze (EPM) is considered the first choice test for screening anxiolytic effects of drugs. This test is based on the fact that higher anxiety levels will decrease the drive to explore a new environment as a way to avoid a potentially dangerous areas (open arms), and will, therefore, cause the mice to stay immobile in the closed arms for a longer period of time.
# [1] = tested on: fear-induced anxiety in mice; assay: Elevated plus maze after fear conditioning (fear-induced anxiety); format: in vivo
# Description: Mice were trained for FC. After the retention test, the mice were tested for anxiety levels in the EPM. The number of entries into the open and closed arms and the exploratory behavior of the mice were determined using a video tracking software that measures movement in each section of the EPM.
# To determine the effect of cotinine treatment on the levels of anxiety in the mice after re-exposure to a fear memory, we performed the same EPM test but 24 h after fear conditioning training (shock in the chamber) and immediately after re-exposure to the context (chamber), a reminder of the unconditioned aversive stimulus (the electric shock).
# [2] = tested on: sensorimotor abilities in mice; assay: Rotarod test; format: in vivo; conditions: two weeks of cotinine 1 mg/kg and 5 mg/kg
# Description: At the end of the behavioral testing for FC, mice treated for two weeks with vehicle, cotinine 1 mg/kg and 5 mg/kg were tested in the rotarod as follows. The rotarod test was performed in an apparatus consisting of a 3 cm in diameter rod that was started at 4 rpm, accelerating up to 40 rpm for 5 min. Mice were tested for the time spent on the rod during each trial for a total of four trails per day. Testing during each trial was finished when the mouse fell off the rod and onto a spring-cushioned lever. The results are expressed as latency to fall in seconds (time spent on the rod) with 8 mice/group/treatment.
# To discard a confounding effect of cotinine on learning due to changes in motor coordination and fatigue, we tested mice in the rotarod test after 2 weeks of treatment with vehicle or cotinine at the doses indicated in the figure below.
# transgenic Tg6799 mice = assay: Circular platform test of reference memory; format: in vivo; conditions: cotinine 2.5 mg/kg via gavage for two months
# Description: Mice of 2.5 months of age were treated or not with cotinine 2.5 mg/kg via gavage for two months and after tested in the circular platform test. In this test the number of errors to escape a 69 cm diameter circular platform containing 16 holes along its perimeter was determined in a single daily trial (300 s maximum) over 8 days of testing. Only one hole leads to an escape box, which remains the same for any given animal. To control for olfactory cures, the escape hole was relocated after each animal's trial and the maze cleaned with a dilute vinegar solution. Tg, transgenic Tg6799 mice, NT, control wild type littermate mice. N=11 mice by group.
# DARPP-32 = DARPP-32 activity in neurons; format: cell-based; conditions: neurons from rat brain cells
# [3] = in vivo; cited from earlier work
# T1 sequence (P05067 672-713 limits assumed): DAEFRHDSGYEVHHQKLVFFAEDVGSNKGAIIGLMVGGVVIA
structure (smiles),measurement,setting,value
CN1C(=O)CC[C@H]1c1cccnc1 [cotinine],"levels of Aβ monomers (Western blot, 6E10)","Aβ1-42 peptide; 100 μM Aβ1-42, cotinine 100, 200, 500 μM, 5 and 7 days at 25° C.",increased the levels of Aβ monomers
same,concentration of Aβ oligomers (A11 dot-blot),"Aβ1-42 peptide; 100 μM Aβ1-42, cotinine 100, 200, 500 μM, days 2 and 6 at RT",decreased the concentration of Aβ oligomers
same,6E10 immunoreactivity (dot-blot),"Aβ1-42 peptide; 100 μM Aβ1-42, increasing cotinine, days 2 and 6 at RT",higher immunoreactivity for the 6E10 antibody
same,"time spent on open arms (EPM, resting conditions)",anxiety in mice; p=0.4471,did not change
same,"time spent on closed arms (EPM, resting conditions)",anxiety in mice; p=0.6186,did not change
same,"time spent exploring the maze (EPM, resting conditions)",anxiety in mice; p=0.8831,did not change
same,"difference in time in the closed arms, untreated compared with cotinine (EPM after FC)","[1]; cotinine 1 mg/kg, p=0.0060",highly significant
same,"time in the open arms, vehicle compared with cotinine (EPM after FC)","[1]; cotinine 1 mg/kg, p=0.0101",significantly less time in the open arms
same,"time exploring, vehicle compared with cotinine (EPM after FC)","[1]; cotinine 1 mg/kg, p=0.0145",significantly less time exploring
same,"time exploring, vehicle compared with cotinine (EPM after FC)","[1]; cotinine 5 mg/kg, p=0.0025",significantly less time exploring
same,"difference in time in the closed arms, untreated compared with cotinine (EPM after FC)","[1]; cotinine 5 mg/kg, p=0.0111",highly significant
same,"time in the open arms, vehicle compared with cotinine (EPM after FC)","[1]; cotinine 5 mg/kg, p=0.0545",no significant differences
same,"sensorimotor abilities, latency to fall (rotarod)",[2],did not affect sensorimotor abilities
same,reference memory in the circular platform,transgenic Tg6799 mice,prevents the loss of reference memory
same,activity of DARPP-32,DARPP-32,increases the activity of DARPP-32
same,half-life,[3],10 to 24 h
